Experimental data: patent US11352391B2, “Compositions for inducing urinary voiding and defecation” (Dignify Therapeutics, LLC, priority 2017, dated 2022)
Where a SMILES comes first, the peptide text is derived from it.

Legend:
[1] = Saline solubility of heptapeptides; format: physicochemical
Description: Heptapeptides A-K shown below in Table 1 (SEQ ID NOs: 1-11) were synthesized according to standard Fmoc-mediated solid-phase techniques and purified under typical C18 reverse-phase conditions.
Compounds D-K were considered to be insoluble in saline (<1 mg/mL).

[2] = system: anesthetized acute spinal cord injured (aSCI) rat; experiment: Isovolumetric bladder pressure in anesthetized acute spinal cord injured (aSCI) rats; format: in vivo
Description: Methods: Studies were conducted in acutely spinal transected rats under isovolumetric bladder pressure recording conditions. Acute spinal cord injury (aSCI) is an in vivo model of isolated bladder smooth muscle contraction without reinforcement from micturition reflexes (i.e., myogenic, not neurogenic, contraction). Thus, it can be viewed as a model of severe bladder underactivity.
Animal preparation: In vivo studies were performed in anesthetized, acutely spinalized (T8-10 level) rats. Rats were anesthetized with urethane (1.2-1.4 g/kg subcutaneous injection). Surgical procedures were then performed with the addition of isoflurane anesthesia (0.05-1.5% in 02) as needed.
For aSCI, the skin and muscle on the dorsal side at the level of the lower thoracic vertebrae were incised and the spinal cord was carefully exposed by a laminectomy and transected at the T8-T10 spinal level. Gelfoam was placed at the incision site and the muscle and skin overlying the vertebrae were closed with wound clips. The spinal cord was cut at least 60 min before starting the experimental protocol. […]
Data analysis: Data were examined qualitatively and quantitatively. The mean, standard deviation and standard error of the mean were calculated using MICROSOFT EXCEL.

[3] = target: T1, recombinant hNK2R expressed in CHO cells (Homo sapiens, UniProt P21452); experiment: Intracellular calcium mobilization (FLIPR) in CHO-hNK2 cells; format: cell-based
T1 sequence (P21452 1-398): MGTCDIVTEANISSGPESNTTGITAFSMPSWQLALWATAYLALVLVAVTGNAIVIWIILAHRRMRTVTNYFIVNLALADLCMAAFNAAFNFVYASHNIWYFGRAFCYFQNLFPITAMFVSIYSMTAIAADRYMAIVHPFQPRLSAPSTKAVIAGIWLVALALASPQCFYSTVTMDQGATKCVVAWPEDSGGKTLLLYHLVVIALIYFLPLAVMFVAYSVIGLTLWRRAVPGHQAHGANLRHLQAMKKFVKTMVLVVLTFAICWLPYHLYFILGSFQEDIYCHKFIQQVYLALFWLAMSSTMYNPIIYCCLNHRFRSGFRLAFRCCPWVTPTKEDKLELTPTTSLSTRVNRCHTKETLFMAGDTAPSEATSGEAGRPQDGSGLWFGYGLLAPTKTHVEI
Description: CHO-hNK1 and CHO-hNK2 cells were seeded into black walled clear-bottom 384-well plates) at a density of 10,000 and 15,000 cells per well in 50 μL culture media, respectively, and grown overnight at 37° C. in a humidified CO2-incubator. Cells were washed in washing buffer using the EMBLA 384 instrument, leaving 20 μL of buffer per well after the final aspiration. Cells were then incubated at 37° C. with the cytoplasmic Ca2+ indicator Fluo-4 AM (final concentration 1 μM) in assay buffer (20 mM HEPES, 145 mM NaCl, 5 mM KCl, 5.5 mM glucose, 1 mM MgCl2 and 2 mM CaCl2, pH 7.4, 0.05% Pluronic F-127 and 0.1% BSA) containing 2.5 mM probenecid for […] (cell loading). Cells were then washed 3 times in washing buffer (20 mM HEPES, 145 mM NaCl, 5 mM KCl, 5.5 mM glucose, 1 mM MgCl2 and 2 mM CaCl2, pH 7.4 and 2.5 mM probenecid) using the EMBLA 384 instrument, leaving 30 μL of buffer in each well after the last wash. Loaded cell plates were transferred to the FLIPR machine and calcium responses were monitored as described below. A dual read-out FLIPR protocol was used, allowing for characterization of both agonist and antagonist profiles. For quality control, in each compound plate the signal was monitored by evaluating the responses to the reference standards (NKA and Substance P).
Concentration response curves of compounds were run in duplicate on two different occasions from the same stock solutions. Test solutions were prepared from 10 mM stock solutions in DMSO and 1 μL of each solution was stamped into V-bottom assay plates containing 49 μL assay buffer. The final concentration of DMSO was 0.5% in each well.

[4] = system: anesthetized dog; experiment: Colorectal pressure manometry in anesthetized dog; format: in vivo
Description: Animal preparation: Naïve beagle dogs were fasted for 12-24 hours and received a warm water enema the night prior to, and the morning of, the experiment to clear the rectum and lower colon of feces. The day of the experiment, a 20 gauge IV catheter (Terumo Surflo) was placed in the cephalic vein for anesthetic induction (propofol, 10 mg/kg; IV) and delivery of IV fluids (5-10 ml/kg/hr) and compounds. The sedated dog was intubated with a 5-6 Fr tracheal tube and was maintained on 2-3% isoflurane via a ventilator (15-25 breaths/min; tidal volume […]) for the remainder of the experiment.
Bowel contractility: For colorectal pressure manometry, an ˜3 inch balloon catheter was inserted into the rectum and secured to the tail with tape. This catheter was connected via a three-way stopcock to a pressure transducer (UTAH MEDICAL PRODUCTS; DelTran II) for pressure recording. Data were recorded using PowerLab/8SP acquisition system using LabChart software (version 7.3.7; ADINSTRUMENTS, Australia). Arterial pressure, ECG, temperature and blood oxygen saturation (spO2) were monitored throughout the experiment (MEDTRONIC LIFEPAK12). Dogs were recovered in a quiet room under veterinary supervision.

SMILES: CCCC[C@H](NC(=O)[C@H](CC(C)C)N(C)C(=O)CNC(=O)[C@@H](NC(=O)[C@H](Cc1ccccc1)NC(=O)[C@H](CCCNC(=N)N)NC(=O)[C@@H](N)CC(=O)O)C(C)C)C(N)=O [Compound B, Asp-Arg-Phe-Val-Gly-(NMe-Leu)-Nle-NH2] (HELM PEPTIDE1{D.R.F.V.G.[meL].[Nle].[am]}$$$$V2.0; N-terminus assumed)
- solubility [1]: > 20 mg/mL
- onset of increase in bladder contraction pressure ([2]; SC, anesthetized aSCI rat): < 2 min
- bladder activity (peak bladder pressure) ([2]; doses >10 μg/kg SC, aSCI rat): measurable increases in bladder activity
- EC50 ([3]; calcium mobilization, CHO-hNK2 cells, read-out: hNK2 EC50): 0.08 nM
- hNK2 selectivity ratio ([3]; ratio of EC50s hNK1R/hNK2R): 70
- duration of colorectal pressure response ([4]; IV bolus (B and E 3 μg/kg; G 3, 30 and 66 ug/kg)): approximately 7 minutes
- duration of colorectal pressure response ([4]; SC 30 μg/kg): over 30 minutes
- onset of increase in colorectal pressure ([4]; both IV bolus 3 μg/kg and SC 30 μg/kg): ≤ 3 min
